In data set [1] the target is T1, Human C17,20-lyase (microsomal fraction from human testis) (Homo sapiens, UniProt P05093).
T1 construct: using microsomal fraction from human testis (Celsis Cat #S00110) as the enzyme source; tissue Celsis S00110; host or cells: human testis microsomal fraction
T1 sequence (P05093 1-508): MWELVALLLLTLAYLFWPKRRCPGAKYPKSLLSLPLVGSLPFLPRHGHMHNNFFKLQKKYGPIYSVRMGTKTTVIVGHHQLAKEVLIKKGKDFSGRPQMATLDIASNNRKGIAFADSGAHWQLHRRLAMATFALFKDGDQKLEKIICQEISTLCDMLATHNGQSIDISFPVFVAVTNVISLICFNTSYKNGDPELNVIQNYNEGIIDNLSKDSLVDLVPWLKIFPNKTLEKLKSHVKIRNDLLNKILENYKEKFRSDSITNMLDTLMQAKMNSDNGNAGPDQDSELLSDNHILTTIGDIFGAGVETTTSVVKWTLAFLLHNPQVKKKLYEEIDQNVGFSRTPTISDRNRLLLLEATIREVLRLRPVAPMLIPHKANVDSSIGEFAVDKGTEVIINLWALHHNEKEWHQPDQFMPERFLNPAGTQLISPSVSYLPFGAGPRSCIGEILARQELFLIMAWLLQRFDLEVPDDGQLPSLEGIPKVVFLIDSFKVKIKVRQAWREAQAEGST
The data set can be described thus: CYP17 enzymatic assay (% inhibition at 10 nM), version 2 (Biological Example 6). The format is biochemical. The note with it: method: tested at 100 nM; human testis microsome, radiometric. Here is the method:
Human C17,20-lyase enzymatic assays were conducted in 200 μL volume in Eppendorf tubes, using microsomal fraction from human testis (Celsis Cat #S00110) as the enzyme source. Total protein concentration of the microsomal fraction is estimated to be 20 mg/ml. Prior to adding the microsomal fractions, reaction mixtures containing 50 mM NaPO4 buffer (pH 7.4), 1 mM MgCl2, 0.1 mM EDTA, 0.1 mM dithiothreitol, 0.5 mM NADPH, 4 μM 17α-hydroxypregnenolone, 1 μL of [21-^3H]-17α-hydroxypregnenolone (American Radiolabeled Chemicals, ART #1663, Specific activity=50-60 Ci/mmol), and the appropriate testing compounds were incubated for 5 minutes in a 37° C. shaking water bath (150 rpm). Following the 5-minute pre-incubation, 5 μL of human testis microsome was added to each of the reaction mixtures (except for the Negative Controls, which received 5 μL of H2O). After 30-minute incubation at 37° C. in shaking water bath (150 rpm), reactions were stopped by addition of 200 μL of cold chloroform and vigorous shaking for 30 minutes. Tubes were centrifuged at 1,500×g for 15 minutes at 4° C., and the aqueous phase was transferred to fresh Eppendorf tubes. Forty microliters (40 μL) of 8.5% charcoal (Sigma Cat #C6241) suspension was added to each tube, mixed well and incubated at 4° C. for 30 minutes. Tubes were centrifuged at 1,500×g for 15 minutes at 4° C., and 100 μL upper layer from each tube was transferred into each well of a 96-well isoplate (PerkinElmer Cat #6005040). Finally, 100 μL of Optiphase supermix scintillation fluid (PerkinElmer Cat #1200430) was added to each well, mixed by pippeting up and down 3 times. Radioactivity was measured with MicroBeta Trilux Counter using tritium program.
All testing compounds were dissolved and diluted in methanol. Two microliters (2 μL) of the properly diluted test compound was added to each reaction to reach the desired concentration. In Negative control (no enzyme activity) and Activity control (100% enzyme activity), 2 μL of methanol was added. Each data point was tested in duplicate. […]
For compounds of further interest, IC50 value was generated by measuring the inhibition rate at 5 concentrations and using Prism software under “non-linear regression analysis.”

Data set [2] can be described thus: Rat liver microsome stability assay (Biological Example 8a). The note with it: liver microsomes, pH 7.4. In general terms: Microsomes from liver hold many membrane-bound enzymes, among them those of drug oxidation.
Data set [3] addresses T2, Cyp21 enzyme (Human HEK 293-Cyp21 stable transfected cells) (Homo sapiens, UniProt P08686).
T2 construct: expressed in transfected cells
T2 sequence (P08686 1-495): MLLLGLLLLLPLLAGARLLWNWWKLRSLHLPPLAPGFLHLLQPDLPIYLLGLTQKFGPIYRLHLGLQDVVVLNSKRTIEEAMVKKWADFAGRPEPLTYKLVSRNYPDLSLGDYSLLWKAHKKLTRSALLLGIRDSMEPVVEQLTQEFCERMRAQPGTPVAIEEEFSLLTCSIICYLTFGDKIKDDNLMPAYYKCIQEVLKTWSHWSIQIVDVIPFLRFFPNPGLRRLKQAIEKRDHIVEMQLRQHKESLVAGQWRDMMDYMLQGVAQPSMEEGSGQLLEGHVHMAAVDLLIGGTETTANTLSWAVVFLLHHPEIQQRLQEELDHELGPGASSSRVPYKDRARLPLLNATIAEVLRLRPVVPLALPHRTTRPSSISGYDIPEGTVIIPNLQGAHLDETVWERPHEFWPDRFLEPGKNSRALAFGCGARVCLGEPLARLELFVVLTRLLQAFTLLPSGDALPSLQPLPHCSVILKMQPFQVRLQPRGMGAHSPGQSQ
The data set can be described thus: CYP21-HEK293 enzymatic assay (% inhibition at 100 nM) (Biological Example 10). The note with it: HEK 293-Cyp21 cells. Format: cell-based. The method in brief: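 Percent inhibition at 100 nM: DOC in conditioned medium was read by ELISA at 450 nm and quantified from a standard curve. Stably transfected human Cyp21 HEK293 cells were pretreated 5 h with compound or 1% methanol mock, then given 10 μM final progesterone for 20 h at 37 °C.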

Another data set can be described thus: in vitro. The settings on record: human, microsomes, pH 7.4.
The target in data set [4] is T3, CYP17 (human testicular microsome) (Homo sapiens, UniProt P05093).
T3 construct: using microsomal fraction from human testis (Celsis Cat #S00110) as the enzyme source; tissue Celsis S00110; host or cells: human testis microsomal fraction
T3 sequence (P05093 1-508): T1 sequence (P05093 1-508)
Briefly: CYP17 enzymatic assay (% inhibition at 10 nM), version 1 (Biological Example 5). Format: biochemical. The settings on record: 10 nM compound, DHEA by ELISA, read-out: Biological Example No. 5: CYP17 percent inhibition at 10 nM (version 1).
Procedure: The assays were performed in 96-well plates. Typical assays were carried out in total 100 μL volume that included test compounds at 10 nM concentration, 1× reaction buffer, 0.5 mM NADPH, 1 μM 17α-hydroxypregnenolone, and 2.5 μL of diluted human testicular microsome (Celsis. Cat #S00110). Reaction without test compound served as positive control. Reactions were allowed to incubate at 37° C. for 90 minutes with gentle shaking. The reaction was stopped by directly applying the enzymatic reaction mixture to ELISA plate for evaluation of DHEA concentration according to manufacturer's protocol (IBL America). A standard curve (OD450 vs. DHEA concentration) was generated using purified DHEA. […] Percent inhibition (inhibition %) of the compound was calculated using normalized DHEA concentration based on following formula: 100-([DHEA] of compound/[DHEA] of positive control *100).

The nature of data set [5]: Human liver microsome stability assay (Biological Example 8b). The note with it: liver microsomes, pH 7.4.
Procedure: (§1) The reaction was started with addition of excess NADPH (5 mg/mL, 15 μL in 0.1 M potassium phosphate buffer, 1.0 mM EDTA, pH 7.4), the total volume is 45 μL (compound final concentration was 1 μM). […] 50 μL of the supernatant was transferred from each well into a 96-well sample plate containing 50 μL of ultra-pure water (Millipore) for LC-MS/MS analysis.
Data set [6] deals with T3, CYP17 (human testicular microsome). Briefly: CYP17 enzymatic assay (IC50) (Biological Example 4). The note with it: human testicular microsome, DHEA by ELISA; read-out: Biological Example No. 4: CYP17 enzymatic assay IC50. Format: biochemical. For orientation: ELISA stands for enzyme-linked immunosorbent assay.
Data set [7] has the same target. The data set can be described thus: CYP17 enzymatic assay (% inhibition at 1 nM) (Biological Example 12). The format is biochemical.
Procedure: The assays were performed in 96-well plates. Typical assays were carried out in total 100 μL volume that included test compounds at 1 nM concentration, 1× reaction buffer, 0.5 mM NADPH, 1 μM 17α-hydroxypregnenolone, and 2.5 μL of human testicular microsome (Celsis. Cat #S00110). Reaction without test compound served as a positive control. Reactions were allowed to incubate at 37° C. for 90 min with gentle shaking. The reaction was stopped by directly applying the enzymatic reaction mixture to ELISA plate for evaluation of DHEA concentration according to manufacturer's protocol (IBL America). A standard curve (OD450 vs. DHEA concentration) was generated using purified DHEA. […] Percent inhibition (inhibition %) of the compound was calculated using normalized DHEA concentration based on following formula: 100−([DHEA] of compound/[DHEA] of positive control*100).
Data set [8] relates to rat Cyp11B enzyme (rat adrenal mitochondria). Briefly: CYP11B enzymatic assay (% inhibition at 100 nM) (Biological Example 9). The format is biochemical. The settings on record: compound at 100 nM. In outline: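 Sprague Dawley rat adrenal mitochondria were incubated with compound at 100 nM, 0.5 mM NADPH and 0.1 μM 11-deoxycortisol (pH 7.4 Tris buffer) for 60 min at 37 °C. Cortisol was measured by ELISA and corrected by subtracting the no-NADPH background. % inhibition is relative to the no-compound reaction.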

Where [9] appears, read: compound at 1 nM, read-out: CYP17 enzymatic assay % inhibition at 1 nM (Biological Example No. 12).

The source of these data is patent publication US20130252930A1 (BIOMARIN PHARMACEUTICAL INC., priority 2010, published 2013).

Read-outs that look alike come from different tables or passages of the source.

Procedure for in vitro: as §1

A word on the half-life: it is how long it takes for the measured level to halve. A higher half-life goes with slow decline. For `C[C@]12CCC3C(CCN4C(=O)CC=CC[C@]34C)C1CC=C2c1cccnc1` (stereo partly drawn) [Compound 34, (11aR,13aS)-11a,13a-dimethyl-1-(pyridin-3-yl)-3b,4,5,8,11,11a,11b,12,13,13a-decahydro-3H-azepino[2,1-a]cyclopenta[f]isoquinolin-7(3aH)-one], the “Biological Example No. 6: CYP17 percent inhibition (version 2)” value in data set [1] was “F (F means the compound had a percent inhibition of greater than or equal to 38%)”. In data set [2], this compound returned a half-life at 1 μM of 1 to 10 min.

For the compound `C[C@]12CCC3C(CCN4C(=O)C=CCC[C@]34C)C1CC=C2c1cccnc1` (stereo partly drawn) [Compound 35, (11aR,13aS)-11a,13a-dimethyl-1-(pyridin-3-yl)-3b,4,5,10,11,11a,11b,12,13,13a-decahydro-3H-azepino[2,1-a]cyclopenta[f]isoquinolin-7(3aH)-one], the “Biological Example No. 6: CYP17 percent inhibition (version 2)” value in [1] is listed as “F (F means the compound had a percent inhibition of greater than or equal to 38%)”.

Usually inhibition stands for the share of the control response that was lost under treatment. With `COc1cncc(C2=CC=C3[C@@H]4CCC5=CC(=O)CC[C@]5(C)[C@H]4CC[C@]23C)c1` [Compound 83, (10R,13S)-17-(5-methoxypyridin-3-yl)-10,13-dimethyl-6,7,8,9,10,11,12,13-octahydro-1H-cyclopenta[a]phenanthren-3(2H)-one], in data set [3] (100 nM compound, read-out: Biological Example No. 10: CYP21-HEK293 percent inhibition at 100 nM), the inhibition at 0.1 µM is no less than 30%. Also, the half-life at 1 μM in the data set “in vitro” was 1 to 50 min. Moreover, the inhibition at 0.01 µM in [4] lay within 50 to 80%.

One may read the IC50 as the concentration at which inhibition is half-maximal. On to `C[C@]12CCOC(=O)C[C@@H]1CC[C@@H]1[C@@H]2CC[C@]2(C)C(c3cccnc3)=CC[C@@H]12` [Compound 112, (1S,2S,8S,12S,16S,11R)-2,16-dimethyl-15-(3-pyridyl)-5-oxatetracyclo[9.7.0.0^2,8.0^12,16]octadec-14-en-6-one], for which the “Biological Example No. 6: CYP17 percent inhibition (version 2)” value in data set [1] is “F (F means the compound had a percent inhibition of greater than or equal to 38%)”. The half-life at 1 μM in data set [5] lay in the range of 1 to 50 min; in [2] it was 10 to 60 min. In [6], the IC50 is less than 11 nM.

Regarding `COc1cncc(C2=CC[C@H]3[C@@H]4CC[C@H]5COC(=O)CC[C@]5(C)[C@H]4CC[C@]23C)c1` [Compound 115, (1S,12S,16S,2R,8R,11R)-15-(5-methoxy(3-pyridyl))-2,16-dimethyl-6-oxatetracyclo[9.7.0.0^2,8.0^12,16]octadec-14-en-5-one], the “Biological Example No. 6: CYP17 percent inhibition (version 2)” value in data set [1] was “F (F means the compound had a percent inhibition of greater than or equal to 38%)”.

`CCOc1cncc(C2=CC[C@H]3[C@@H]4CC[C@H]5COC(=O)CC[C@]5(C)[C@H]4CC[C@]23C)c1` [Compound 117, (1S,12S,16S,2R,8R,11R)-15-(5-ethoxy(3-pyridyl))-2,16-dimethyl-6-oxatetracyclo[9.7.0.0^2,8.0^12,16]octadec-14-en-5-one]: the “Biological Example No. 6: CYP17 percent inhibition (version 2)” value in [1] was “G (G means the compound had a percent inhibition of less than 38% but greater than or equal to 3%)”.

Regarding `CC(=O)N[C@@H]1CC[C@@]2(C)C(=CC[C@@H]3[C@@H]2CC[C@]2(C)C(c4cncc(C(F)(F)F)c4)=CC[C@@H]32)C1` [Compound 231, N-((3R,10R,13S)-10,13-dimethyl-17-(5-(trifluoromethyl)pyridin-3-yl)-2,3,4,7,8,9,10,11,12,13,14,15-dodecahydro-1H-cyclopenta[a]phenanthren-3-yl)acetamide], the inhibition at 0.001 µM in [7] (setting [9]) lay within 10 to 50%. Besides, the half-life at 1 μM in the data set “in vitro” was 1 to 50 min.

As to `CCNC(=O)N[C@@H]1CC[C@@]2(C)C(=CC[C@@H]3[C@@H]2CC[C@]2(C)C(c4cccnc4)=CC[C@@H]32)C1` [Compound 232, 1-((3R,10R,13S)-10,13-dimethyl-17-(pyridin-3-yl)-2,3,4,7,8,9,10,11,12,13,14,15-dodecahydro-1H-cyclopenta[a]phenanthren-3-yl)-3-ethylurea], in data set [7] (setting [9]), the inhibition at 0.001 µM was greater than 50%. In the data set “in vitro”, this compound came in with a half-life at 1 μM of 1 to 50 min.

Turning to `CCNC(=O)NC1CC[C@@]2(C)C(=CCC3C2CC[C@]2(C)C(n4ccnc4)=CCC32)C1` (stereo partly drawn) [Compound 242, 1-((10R,13S)-17-(1H-imidazol-1-yl)-10,13-dimethyl-2,3,4,7,8,9,10,11,12,13,14,15-dodecahydro-1H-cyclopenta[a]phenanthren-3-yl)-3-ethylurea], in data set [7] (setting [9]), the inhibition at 0.001 µM was greater than 50%. Moreover, in data set [8], the “CYP11B enzymatic assay % inhibition at 100 nM (Biological Example No. 9)” value is given as “U (U means the compound had a percent inhibition of greater than or equal to 32%)”. Besides, the inhibition at 0.1 µM in data set [3] (compound at 100 nM, read-out: CYP21-HEK293 enzymatic assay % inhibition at 100 nM (Biological Example No. 10)) was less than 30%. The half-life at 1 μM in the data set “in vitro” was in the range of 1 to 50 min.

Take `CC(=O)N[C@@H]1CC[C@@]2(C)C(CC[C@H]3C4=CC=C(c5cccnc5)[C@@]4(C)CC[C@@H]32)C1` (stereo partly drawn) [Compound 244, N-((3R,10S,13S)-10,13-dimethyl-17-(pyridin-3-yl)-2,3,4,5,6,7,8,9,10,11,12,13-dodecahydro-1H-cyclopenta[a]phenanthren-3-yl)acetamide]: the inhibition at 0.001 µM in data set [7] (setting [9]) was greater than 50%. Moreover, in “in vitro”, the half-life at 1 μM lay in the range of 1 to 50 min.

Turning to `C[C@@]1(O)CC[C@@]2(C)C(=CCC3C2CC[C@]2(C)C(c4cncc(F)c4)=CCC32)C1` (stereo partly drawn) [Compound 269, (3R,10R,13S)-17-(5-fluoropyridin-3-yl)-3,10,13-trimethyl-2,3,4,7,8,9,10,11,12,13,14,15-dodecahydro-1H-cyclopenta[a]phenanthren-3-ol], the inhibition at 0.001 µM in data set [7] (test compound at 1 nM, read-out: CYP17 enzymatic assay percent inhibition at 1 nM (Biological Example No. 12)) is greater than 50%. In “in vitro”, the half-life at 1 μM is greater than 50 min.
